Values of other authors in patent US9907752B2, “Bendamustine solid dispersions and continuous infusion” (priority 2014, dated 2018).
Values after ≈ are worked out from the molar mass of the structure shown.

What was measured:
[1] = aqueous solution

Compound | hydrolysis reaction half times [1] | solubility in DMSO (DMSO) [mg/mL] | solubility in water (water) [mg/mL]
Cn1c(CCCC(=O)O)nc2cc(N(CCCl)CCCl)ccc21 [bendamustine, 4-{5-[Bis(2-chloroethyl)amino]-1-methyl-2-benzimidazolyl}butyric acid] | measured in hours rather than seconds |  | 
OC[C@@H](O)[C@@H](O)[C@H](O)[C@H](O)CO [mannitol] |  | ~36 (≈ 198 mM) | ~36 (≈ 198 mM)
